Read-outs that look alike come from different tables or passages of the source.
What was measured:
[1] = biological target: T1, 11β-hsd-1 enzyme (Homo sapiens, UniProt P28845); experiment: biochemical; conditions: for inhibition: read-out: % Inh @ 0.1 mM; for inhibition at 0.1 µM: read-out: % Inh @ 0.1 μM
Experimental: Percentage of inhibition was determined in a 100 mM Triethanolamine buffer, pH 8.0, 200 mM NaCl, 0.02% n-dodecyl β-D-maltoside and 5 mM β-ME. A typical reaction was carried on a Corning® u-bottom 96-well plate and is described as follows: 11β-hsd-1 enzyme (5 nM, final concentration) was pre-incubated in the presence of the inhibitor and NADPH (500 μM, final concentration) for at least 30 minutes
in the assay buffer. When pre-incubation was completed, the reaction was initiated by adding the regenerating system (2 mM Glucose-6-Phosphate, 1U/mL Glucose-6-Phosphate dehydrogenase, and 6 mM MgCl2, all the concentration reported are final in the assay buffer), and 3H-cortisone (200 nM, final concentration). After 60 minutes, 60 μL of the assay mixture was transferred to a second 96-well plate and mixed with an equal volume of dimethylsulfoxide to stop the reaction. A 15 μL aliquot from the reaction mixture was loaded into a C-18 column (Polaris C18-A, 50×4.6 mm, 5 μ, 180 Angstrom from Varian) connected to an automated High-throughput Liquid Chromatography instrument developed by Cohesive Technologies Inc of Franklin, Mass., with a […] model 3 Radio-HPLC detector from IN/US of Tampa, Fla. The substrate and product peaks were separated by using an isocratic mixture of 43:57 methanol to water (v/v) at a flow rate of 1.0 mL/min.
Percent Inhibition was calculated based on the following equation: (1-(3H-Cortisol peak area in the […] of inhibitor)×100).

[2] = biological target: T1, 11β-hsd-1 enzyme; experiment: biochemical
Experimental: The 11β-hsd-1 assay was performed in a 100 mM Triethanolamine buffer pH 8.0, containing 200 mM NaCl, 0.02% n-dodecyl β-D-maltoside, 5% glycerol, 5 mM β-mercaptoethanol. A typical reaction for the determination of Kiapp values was carried at R.T. in a Corning® u-bottom 96-well plate and is described as follows: 11β-hsd-1 enzyme (5 nM, final concentration) was pre-incubated in the presence of the inhibitor and NADPH (500 μM, final concentration) for at least 30 minutes in the assay buffer. When pre-incubation was completed, the reaction was initiated by adding the regenerating system (2 mM Glucose-6-Phosphate, 1U/mL Glucose-6-Phosphate dehydrogenase, and 6 mM MgCl2, all the concentration reported are final in the assay buffer), and 3H-cortisone (200 nM, final concentration). After 60 minutes, 60 μL of the assay mixture was transferred to a second 96-well plate and mixed with an equal volume of dimethylsulfoxide to stop the reaction. A 15 μL aliquot from the reaction mixture was loaded into a C-18 column (Polaris C18-A, 50×4.6 mm, 5 μ, 180 Angstrom from Varian) connected to an automated High-throughput Liquid Chromatography instrument developed by Cohesive Technologies Inc, of Franklin, Mass. USA, with a β-RAM model 3 Radio-HPLC detector from IN/US, of Tampa, Fla. USA. The substrate and product peaks were separated by using an isocratic mixture of 43:57 methanol to water (v/v) at a flow rate of 1.0 mL/min.
The initial reaction velocities were measured by stopping the reaction at 60 min and by measuring the area of product formation in the absence and the presence of various concentrations of inhibitors. The Kiapp values were determined using the equation for tight-binding inhibitor developed by Morrison, J. F. (Morrison J. F. Biochim BiophysActa. 1969; 185: 269-86).
The radiolabeled [1,2-3H]-cortisone is commercially available from American Radiolabeled Chemicals Inc of St. Louis, Mo. USA. NADPH, Glucose-6-Phosphate, and Glucose-6-Phosphate dehydrogenase were purchased from Sigma®.
(Morrison J. F. Biochim Biophys Acta. 1969; 185: 269-86).

T1 sequence (P28845 whole entry, species assumed): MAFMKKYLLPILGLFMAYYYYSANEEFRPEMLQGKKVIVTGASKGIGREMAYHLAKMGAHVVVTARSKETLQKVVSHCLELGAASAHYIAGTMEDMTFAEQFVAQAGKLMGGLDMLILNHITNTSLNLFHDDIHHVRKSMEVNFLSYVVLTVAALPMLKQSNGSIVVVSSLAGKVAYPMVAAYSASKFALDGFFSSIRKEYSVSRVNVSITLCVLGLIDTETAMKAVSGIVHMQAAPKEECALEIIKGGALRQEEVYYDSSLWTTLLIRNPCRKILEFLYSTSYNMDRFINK

## 4-(6-chloro-13-benzoxazol-2- yl)-N-quinolin-2-ylpiperazine- 1-sulfonamide [Example 167]
[1]; Table 2, inhibitor 0.1 mM as printed
  % Inh @ 0.1 mM: 100%
[2]; read-out: Klapp, Table 2, 5 nM enzyme, 200 nM 3H-cortisone, 500 μM NADPH
  Ki: 3.4 nM

## CCc1cccc(NS(=O)(=O)N2CC[C@@H]3CCCC[C@@H]3C2)n1 (racemic) [Example 120, (4aS*8aS*)-N-(6-ethylpyridin-2-yl)octahydro-isoquinoline-2(1H)-sulfonamide]
[1]
  inhibition: 100%
[2]
  Ki: 13 nM

## Cc1cc(C)nc(NS(=O)(=O)N2CCN(c3ccc(C(F)(F)F)cn3)CC2)c1 [Example 1, N-(4,6-dimethylpyridin-2-yl)-4-[5-(trifluoromethyl)pyridin-2-yl]piperazine-1-sufonamide]
[1]
  inhibition at 0.1 µM: 95.9%
[2]
  Ki: 4.1 nM

## CCc1cccc(NS(=O)(=O)N2CCN(c3ccc(C#N)cn3)CC2)n1 [Example 3, 4-(5-cyanopyridin-2-yl)-N-(6-ethylpyridin-2-yl)piperazine-1-sulfonamide]
[1]
  inhibition at 0.1 µM: 88.5%
[2]
  Ki: 9 nM

## Cc1cccc(NS(=O)(=O)N2CCN(c3ccc(C(F)(F)F)cn3)CC2)n1 [Example 8]
[1]
  inhibition at 0.1 µM: 96.4%
[2]
  Ki: 2.1 nM

## Cc1cc(C)nc(NS(=O)(=O)N2CCN(c3ccc(C#N)cn3)CC2)c1 [Example 9]
[1]
  inhibition at 0.1 µM: 86.5%
[2]
  Ki: 14 nM

## Cc1cccc(NS(=O)(=O)N2CCc3ccc(S(C)(=O)=O)cc3CC2)n1 [Example 10]
[1]
  inhibition at 0.1 µM: 79.9%
[2]
  Ki: 25.5 nM

## Cc1cccc(NS(=O)(=O)N2CCc3ccccc3CC2)n1 [Example 11]
[1]
  inhibition at 0.1 µM: 95.5%
[2]
  Ki: 2.8 nM

## CS(=O)(=O)c1ccc2c(c1)CCN(S(=O)(=O)Nc1ccc3ccccc3n1)CC2 [Example 12, 7-(Methylsulfonyl)-N-quinolin-2-yl-1,2,4,5-tetrahydro-3H-3-benzazepine-3-sulfonamide]
[1]; Table 1, inhibitor 0.1 μM
  inhibition at 0.1 µM: 100%
[2]
  Ki: 8.6 nM

## N#Cc1ccc(N2CCN(S(=O)(=O)Nc3ccc4ccccc4n3)CC2)nc1 [Example 13]
[1]
  inhibition at 0.1 µM: 94.9%
[2]
  Ki: 7.3 nM

## O=S(=O)(Nc1ccc2ccccc2n1)N1CCN(c2ccc(C(F)(F)F)cn2)CC1 [Example 14]
[1]
  inhibition at 0.1 µM: 100%
[2]
  Ki: 4.8 nM

## CCOC(=O)Cc1cccc(NS(=O)(=O)N2CCc3ccccc3CC2)n1 [Example 15, Ethyl {6-[(1,2,4,5-tetrahydro-3H-3-benzazepin-3-ylsulfonyl)amino]pyridin-2-yl}acetate]
[1]
  inhibition at 0.1 µM: 100%
[2]
  Ki: 2 nM

## CCc1cccc(NS(=O)(=O)N2CCN(c3nc(C)cc(CC(C)C)n3)CC2)n1 [Example 143, N-(6-ethylpyridin-2-yl)-4-(4-isobutyl-6-methylpyrimidin-2-yl)piperazine-1-sulfonamide]
[1]
  inhibition: 36.7%

## CCc1cccc(NS(=O)(=O)N2CCN(c3ccc(C(=O)NC(C)C)cn3)CC2)n1 [Example 146, 6-(4-{[(6-ethylpyridin-2-yl)amino]sulfonyl)piperazin-1-yl)-N-isopropylnicotinamide]
[1]
  inhibition: 30.4%

## CCc1cccc(NS(=O)(=O)N2CCN(c3ccc(C(=O)N4CCOCC4)cn3)CC2)n1 [Example 147, N-(6-ethylpyridin-2-yl)-4-[5-(morpholin-4-ylcarbonyl)pyridin-2-yl]piperazine-1-sulfonamide]
[1]
  inhibition: 27.2%

## Cc1cccc(NS(=O)(=O)N2CCN(c3nc4ncccc4o3)CC2)n1 [Example 152, N-(6-methylpyridin-2-yl)-4-[13]oxazolo[45-b]pyridin-2-ylpiperazine-1-sulfonamide]
[1]
  inhibition: 47.6%

## O=S(=O)(Nc1ccc2ccccc2n1)N1CCN(c2cnccn2)CC1 [Example 158, 4-pyrazin-2-yl-N-quinolin-2-ylpiperazine-1-sulfonamide]
[1]
  inhibition: 44.8%

## O=S(=O)(Nc1ccc2ccccc2n1)N1CCN(c2ncccc2C(F)(F)F)CC1 [Example 159, N-quinolin-2-yl-4-[3-(trifluoromethyl)pyridin-2-yl]piperazine-1-sulfonamide]
[1]
  inhibition: 53.4%

## O=S(=O)(Nc1ccc2ccccc2n1)N1CCCN(c2ncccn2)CC1 [Example 163, 4-pyrimidin-2-yl-N-quinolin-2-yl-14-diazepane-1-sulfonamide]
[1]
  inhibition: 10.5%

## N#Cc1cccnc1N1CCCN(S(=O)(=O)Nc2ccc3ccccc3n2)CC1 [Example 168, 4-(3-cyanopyridin-2-yl)-N-quinolin-2-yl-14-diazepane-1-sulfonamide]
[1]
  inhibition: 56.7%

## COc1cc2c(nn1)CCN(S(=O)(=O)Nc1ccc3ccccc3n1)CC2 [Example 170, 3-methoxy-N-quinolin-2-yl-5689-tetrahydro-7H-pyridazino[34-d]azepine-7-sulfonamide]
[1]
  inhibition: 21.2%

## CCc1cccc(NS(=O)(=O)N2CCCN(c3ncccn3)CC2)n1 [Example 172, N-(6-ethylpyridin-2-yl)-4-pyrimidin-2-yl-14-diazepane-1-sulfonamide]
[1]
  inhibition: 60.2%

## O=S(=O)(Nc1ccc2ccccc2n1)N1CCOc2ccccc2C1 [Example 174, N-quinolin-2-yl-23-dihydro-14-benzoxazepine-4(5H)-sulfonamide]
[1]
  inhibition: 57.9%

## Cc1cc(CC(C)C)nc(N2CCN(S(=O)(=O)Nc3ccc4ccccc4n3)CC2)n1 [Example 175, 4-(4-isobutyl-6-methyl-pyrimidin-2-yl)-N-quinolin-2-ylpiperazine-1-sulfonamide]
[1]
  inhibition: 50%

## CC(C)NC(=O)c1ccc(N2CCN(S(=O)(=O)Nc3ccc4ccccc4n3)CC2)nc1 [Example 177, N-isopropyl-6-{4-[(quinolin-2-ylamino)sulfonyl]piperazin-1-yl}nicotinamide]
[1]
  inhibition: 59.4%

## Cc1ccc2oc(N3CCN(S(=O)(=O)Nc4ccc5ccccc5n4)CC3)nc2n1 [Example 179, 4-(5-methyl[13]oxazolo[45-b]pyridin-2-yl)-N-quinolin-2-ylpiperazine-1-sulfonamide]
[1]
  inhibition: 0%

## CCc1cccc(NS(=O)(=O)N2CCCN(C(=O)OCc3ccccc3)CC2)n1 [Example 182, benzyl 4-{[(6-ethylpyridin-2-yl)amino]sulfonyl}-14-diazepane-1-carboxylate]
[1]
  inhibition: 61%

## CCc1cccc(NS(=O)(=O)N2CCN(c3cc(C#N)ccn3)CC2)n1 [Example 184, 4-(4-cyanopyridin-2-yl)-N-(6-ethylpyridin-2-yl)piperazine-1-sulfonamide]
[1]
  inhibition: 16.8%

## CCc1cccc(NS(=O)(=O)N2CCN(c3nc4cc(OC)ccc4o3)CC2)n1 [Example 185, N-(6-ethylpyridin-2-yl)-4-(5-methoxy-13-benzoxazol-2-yl)piperazine-1-sulfonamide]
[1]
  inhibition: 48.9%

## CCc1cccc(NS(=O)(=O)N2CCN(c3cc(C)nc(C)c3)CC2)n1 [Example 188, 4-(26-dimethylpyridin-4-yl)-N-(6-ethylpyridin-2-yl)piperazine-1-sulfonamide]
[1]
  inhibition: 5.5%

## CCc1cccc(NS(=O)(=O)N2CCN(c3ccc(C)cc3)C(=O)C2)n1 [Example 189, N-(6-ethylpyridin-2-yl)-4-(4-methylphenyl)-3-oxopiperazine-1-sulfonamide]
[1]
  inhibition: 24.9%

## CCc1cccc(NS(=O)(=O)N2CCc3cc(OC)c(OC)cc3C2)n1 [Example 192, N-(6-ethylpyridin-2-yl)-67-dimethoxy-34-dihydroisoquinoline-2(1H)-sulfonamide]
[1]
  inhibition: 29.4%

## CCc1cccc(NS(=O)(=O)N2CCN(c3cnccn3)CC2)n1 [Example 199, N-(6-ethylpyridin-2-yl)-4-pyrazin-2-ylpiperazine-1-sulfonamide]
[1]
  inhibition: 31.3%

## CCc1cccc(NS(=O)(=O)N2Cc3ccccc3C2)n1 [Example 202, N-(6-ethylpyridin-2-yl)-13-dihydro-2H-isoindole-2-sulfonamide]
[1]
  inhibition: 2.4%
